From patent publication US6881725B2, “Method for treating pain” (Inspire Pharmaceuticals Inc., priority 2002, dated 2005)

Experiments:
[1] = tested on: rats; details: Jarvis and Kowaluk, 2001; cited from earlier work
[2] = tested on: mice; assay: Phenylbenzoquinone-induced abdominal constriction assay for visceral pain in mice; assay type: in vivo, mouse
Experimental: (§1) These examples illustrate the effects of AP4AmA in two similar models of abdominal constriction; acetic acid-induced and phenylbenzoquinone-induced constrictions in mice. The method employed in FIGS. 2A and […] was a modification of the abdominal constriction test described by Collier et. al (Collier, H, O. et. al, Br. J. Pharmacol. Chemother. 32:295-310 (1968)).
Briefly, in FIG. 2B, each animal received an i.p. injection of 0.02% phenylbenzoquinone in a volume of 10 mL/kg. The mouse was placed in an observation chamber shortly after the acetic acid injection and allowed to explore. Testing started five minutes after the acetic acid injection and consisted of 5 minutes of observation during which the number of abdominal constrictions was counted. Abdominal constriction was defined as a lengthwise stretching of the torso with concave arching of the back. AP4AmA and vehicle were administered i.p., in a volume of 10 mL/kg, 3 minutes prior to the administration of acetic acid while morphine was administered i.p., in a volume of 10 mL/kg, 30 minutes prior to the administration of acetic acid.

[3] = tested on: mice; assay: Formalin assay for persistent inflammatory pain (phase II) in mice; assay type: in vivo, mouse; details: 5% formalin s.c. right hindpaw; compound s.c. same paw 10 minutes after formalin; 10-30 minutes post formalin; across doses
Experimental: This example illustrates the effect of AP4AmA in mice in phase II of the formalin assay for persistent inflammatory pain. In brief, mice were injected 20 microliters of a 5% full strength formalin solution subcutaneously (s.c.) into the dorsal aspect of the right hindpaw. The mice were returned to the observation cage. The mice were injected 10 microliters s.c. into the same dorsal aspect of the right hindpaw with either vehicle or AP4AmA in varying concentrations 10 minutes after the formalin injection. […]

[4] = tested on: mice; assay: Hotplate assay for acute pain in mice; assay type: in vivo, mouse
Experimental: The action of P^1-5′-[2′-(O)—,3′-(O)-(benzyl)methylenedioxy]adenosine-P^4-5″-adenosine tetraphosphate, (AP4AmA; AP4A-2′, 3′-mono-acetal with phenylacetaldehyde) on mice in the hotplate model illustrates the analgesic affect of compounds of Formula I. The temperature of the hot plate was set at 55 degrees Celsius. Animals were administered subcutaneously AP4AmA or saline into the dorsal aspect of both hind paws in a volume of 20 microliters. This administration occurred 5 minutes prior to placement on the hotplate. Morphine was administered subcutaneously into the back nape of the mouse's neck in a volume of 10 mL/kg.
The time to hindpaw lick was used as the efficacy endpoint.

[5] = tested on: rats; assay: Spinal Nerve (L5/L6) Ligation model for neuropathic pain (tactile allodynia, von Frey) in rats; assay type: in vivo; details: rat
[6] = tested on: mice; assay: Acetic acid-induced abdominal constriction assay for visceral pain in mice; assay type: in vivo, mouse
Experimental: as §1
Briefly, in FIG. 2A, each animal, received an intraperitoneal (i.p.) injection of 0.9% acetic acid in a volume of 10 mL/kg. The mouse was placed in an observation chamber shortly after the acetic acid injection and allowed to explore. Testing started five minutes after the acetic acid injection and consisted of 10 minutes of observation during which the number of abdominal constrictions was counted. Abdominal constriction was defined as a lengthwise stretching of the torso with concave arching of the back. AP4AmA and vehicle were administered i.p., in a volume of 10 mL/kg, 3 minutes prior to the administration of acetic acid while Morphine was administered i.p., in a volume of 10 mL/kg, 25 minutes prior to the administration of acetic acid.

[7] = mouse hotplate, highest dose of AP4AmA

Molecule | antinociceptive effects [1] | number of abdominal constrictions ([2]; 0.02% phenylbenzoquinone i.p., compound i.p. 3 minutes prior, across doses) | number of abdominal constrictions, compared with morphine ([2]; phenylbenzoquinone model, 30 mg/kg AP4AmA i.p.) | duration of time spent licking the inflamed hind paw [3] | time to hindpaw lick, maximal percent effect (MPE %) ([4]; mouse hotplate 55 degrees Celsius, s.c. into both hind paws 5 minutes before, across doses) | time to hindpaw lick, maximal percent effect, compared with morphine [4, 7] | time to hindpaw lick, maximal percent effect, compared with vehicle control [4, 7] | gram force required to induce withdrawal of the allodynic hindpaw, compared with morphine ([5]; von Frey filaments) | gram force required to induce withdrawal of the allodynic hindpaw, compared with vehicle control ([5]; von Frey filaments) | reversal of allodynia ([5]; 0.03 mg/mL, 50 microliters subplantar, 60 minutes prior to testing, versus morphine i.p. 16 mg/kg) | number of abdominal constrictions ([6]; 0.9% acetic acid i.p., compound i.p. 3 minutes prior, across doses) | number of abdominal constrictions, compared with morphine ([6]; acetic acid model, 100 mg/kg AP4AmA i.p.)
TNP-ATP | produce antinociceptive effects in rats | – | – | – | – | – | – | – | – | – | – | –
Nc1ncnc2c1ncn2[C@@H]1O[C@H](COP(=O)(O)OP(=O)(O)OP(=O)(O)OP(=O)(O)OC[C@H]2O[C@@H](n3cnc4c(N)ncnc43)[C@@H]3OC(Cc4ccccc4)O[C@@H]32)[C@@H](O)[C@H]1O (stereo partly drawn) [AP4AmA, P^1-5′-[2′-(O)—,3′-(O)-(benzyl)methylenedioxy]adenosine-P^4-5″-adenosine tetraphosphate] | – | dose dependent pharmacological effect | not statistically different from morphine | dose dependent pharmacological effect | dose dependent pharmacological effect | statistically equivalent to morphine | statistically significant from vehicle control | not statistically different from morphine | significantly different from vehicle control | can reverse the allodynia in the rat to an equivalent level as morphine | dose dependent pharmacological effect | not statistically different from morphine
